Test results published in patent US8952024B2, “Herbicidal pyrimidone derivatives” (E I du Pont de Nemours and Company, priority 2009, dated 2015).
Like-named read-outs stand apart in the source and are kept apart here.

How the values were obtained:
Assay in all cases: Test B pre-/postemergence plant response
Assay type in all cases: in vivo
[1] = tested on: Surinam grass (Brachiaria decumbens); conditions: for pest or weed control at 125 g/ha: 125 g ai/ha
How it was run: (§1)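 Greenhouse herbicide screen. Pre- and postemergence (1- to 4-leaf) spray of compound in solvent/surfactant mixture; loam–sand soil for pre, peat/vermiculite medium for post. Visual control rating 0–100 at 13 to 15 days after treatment.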

[2] = tested on: blackgrass (Alopecurus myosuroides); conditions: for pest or weed control at 31 g/ha: 31 g ai/ha; for pest or weed control at 125 g/ha: 125 g ai/ha
How it was run: as §1

[3] = tested on: corn (Zea mays); conditions: for Corn plant response rating (crop injury, 0 = no effect, 100 = complete kill) at 31 g/ha: 31 g ai/ha; for Corn plant response rating (crop injury, 0 = no effect, 100 = complete kill) at 125 g/ha: 125 g ai/ha
How it was run: as §1

[4] = tested on: downy bromegrass (Bromus tectorum); conditions: for pest or weed control at 31 g/ha: 31 g ai/ha; for pest or weed control at 125 g/ha: 125 g ai/ha
How it was run: as §1

[5] = tested on: goosegrass (Eleusine indica); conditions: for pest or weed control at 31 g/ha: 31 g ai/ha; for pest or weed control at 125 g/ha: 125 g ai/ha
How it was run: as §1

[6] = tested on: green foxtail (Setaria viridis); conditions: for pest or weed control at 31 g/ha: 31 g ai/ha; for pest or weed control at 125 g/ha: 125 g ai/ha
How it was run: as §1

[7] = tested on: johnsongrass (Sorghum halepense); conditions: for pest or weed control at 31 g/ha: 31 g ai/ha; for pest or weed control at 125 g/ha: 125 g ai/ha
How it was run: as §1

[8] = tested on: kochia (Kochia scoparia); conditions: for pest or weed control at 31 g/ha: 31 g ai/ha; for pest or weed control at 125 g/ha: 125 g ai/ha
How it was run: as §1

[9] = tested on: lambsquarters (Chenopodium album); conditions: 62 g ai/ha, postemergence; 0 is no effect, 100 is complete control; 13 to 15 days
How it was run: as §1

[10] = 62 g ai/ha, postemergence, 0 is no effect, 100 is complete control, 13 to 15 days
[11] = Preemergence, 250 g ai/ha, 0 to 100 scale

In the case of `O=C1CCCC(O)=C1C(=O)c1cnc(-c2cccnc2)n(-c2ccccc2)c1=O` [Compound 113, 5-[(2-hydroxy-6-oxo-1-cyclohexen-1-yl)carbonyl]-3-phenyl-2-(3-pyridinyl)-4(3H)-pyrimidone], the “Surinam Grass plant response rating (0 to 100 scale)” value [1, 10] is reported as 85, the “Surinam Grass plant response rating” value [1, 11] is reported as 98 and the pest or weed control at 125 g/ha ([1]; Urochloa decumbens, post-emergence, Postemergence, scale 0 to 100 (0 no effect, 100 complete control), read-out: Plant response rating, Surinam Grass) is reported as 90%. It also gave a pest or weed control at 250 g/ha ([1]; Urochloa decumbens, post-emergence, Postemergence, 250 g ai/ha, scale 0 to 100 (0 no effect, 100 complete control), read-out: Plant response rating, Surinam Grass) of 90%, a pest or weed control at 31 g/ha ([1]; Urochloa decumbens, pre-emergence, Preemergence, 31 g ai/ha, scale 0 to 100 (0 no effect, 100 complete control), read-out: Plant response rating, Surinam Grass) of 0% and a pest or weed control at 62 g/ha ([1]; Urochloa decumbens, pre-emergence, Preemergence, 62 g ai/ha, scale 0 to 100 (0 no effect, 100 complete control), read-out: Plant response rating, Surinam Grass) of 80%. For the same compound, the pest or weed control at 125 g/ha ([1]; Urochloa decumbens, pre-emergence, Preemergence, scale 0 to 100, 0 no effect, 100 complete control, read-out: Plant response rating, Surinam Grass) was 95%, the “Blackgrass plant response rating (0 to 100 scale)” value [2, 10] was 0 and the pest or weed control at 31 g/ha ([2]; Alopecurus myosuroides, post-emergence, 360 h, postemergence, scale 0 to 100, 0 is no effect, 100 is complete control, read-out: Plant response rating, Blackgrass) was 0%. For the same compound, the pest or weed control at 125 g/ha ([2]; Alopecurus myosuroides, post-emergence, 360 h, Postemergence, scale 0 to 100 (0 no effect, 100 complete control), read-out: Plant response rating, Blackgrass) was 5%, the pest or weed control at 250 g/ha ([2]; Alopecurus myosuroides, post-emergence, 360 h, Postemergence, 250 g ai/ha, scale 0 to 100 (0 no effect, 100 complete control), read-out: Plant response rating, Blackgrass) was 5% and the pest or weed control at 31 g/ha ([2]; Alopecurus myosuroides, pre-emergence, 360 h, Preemergence, scale 0 to 100 (0 no effect, 100 complete control), read-out: Plant response rating, Blackgrass) was 0%. The pest or weed control at 62 g/ha ([2]; Alopecurus myosuroides, pre-emergence, 360 h, Preemergence, 62 g ai/ha, scale 0 to 100, 0 no effect, 100 complete control, read-out: Plant response rating, Blackgrass) was 0%, the pest or weed control at 125 g/ha ([2]; Alopecurus myosuroides, pre-emergence, 360 h, Preemergence, scale 0 to 100, 0 no effect, 100 complete control, read-out: Plant response rating, Blackgrass) was 0% and the “Blackgrass plant response rating” value [2, 11] was 20. The “Corn plant response rating (0 to 100 scale)” value [3, 10] was 60, the “Corn plant response rating” value [3, 11] was 0 and the Corn plant response rating (crop injury, 0 = no effect, 100 = complete kill) at 31 g/ha ([3]; Zea mays, post-emergence, postemergence, scale 0 to 100, 0 is no effect, 100 is complete control) was 25%. It also gave a Corn plant response rating (crop injury, 0 = no effect, 100 = complete kill) at 125 g/ha ([3]; Zea mays, post-emergence, Postemergence, scale 0 to 100 (0 no effect, 100 complete control)) of 80%, a Corn plant response rating (crop injury, 0 = no effect, 100 = complete kill) at 250 g/ha ([3]; Zea mays, post-emergence, Postemergence, 250 g ai/ha, scale 0 to 100 (0 no effect, 100 complete control)) of 85% and a Corn plant response rating (crop injury, 0 = no effect, 100 = complete kill) at 31 g/ha ([3]; Zea mays, pre-emergence, Preemergence, scale 0 to 100 (0 no effect, 100 complete control)) of 0%. The Corn plant response rating (crop injury, 0 = no effect, 100 = complete kill) at 62 g/ha ([3]; Zea mays, pre-emergence, Preemergence, 62 g ai/ha, scale 0 to 100, 0 no effect, 100 complete control) was 0%, the Corn plant response rating (crop injury, 0 = no effect, 100 = complete kill) at 125 g/ha ([3]; Zea mays, pre-emergence, Preemergence, scale 0 to 100, 0 no effect, 100 complete control) was 0% and the “Bromegrass, Downy plant response rating (0 to 100 scale)” value [4, 10] was 60. For the same compound, the pest or weed control at 31 g/ha ([4]; Bromus tectorum, post-emergence, postemergence, scale 0 to 100, 0 is no effect, 100 is complete control, read-out: Plant response rating, Bromegrass, Downy) was 5%, the pest or weed control at 125 g/ha ([4]; Bromus tectorum, post-emergence, Postemergence, scale 0 to 100 (0 no effect, 100 complete control), read-out: Plant response rating, Bromegrass, Downy) was 80% and the pest or weed control at 250 g/ha ([4]; Bromus tectorum, post-emergence, Postemergence, 250 g ai/ha, scale 0 to 100 (0 no effect, 100 complete control), read-out: Plant response rating, Bromegrass, Downy) was 90%. For the same compound, the pest or weed control at 31 g/ha ([4]; Bromus tectorum, pre-emergence, Preemergence, scale 0 to 100 (0 no effect, 100 complete control), read-out: Plant response rating, Bromegrass, Downy) was 0%, the pest or weed control at 62 g/ha ([4]; Bromus tectorum, pre-emergence, Preemergence, 62 g ai/ha, scale 0 to 100, 0 no effect, 100 complete control, read-out: Plant response rating, Bromegrass, Downy) was 10% and the pest or weed control at 125 g/ha ([4]; Bromus tectorum, pre-emergence, Preemergence, scale 0 to 100, 0 no effect, 100 complete control, read-out: Plant response rating, Bromegrass, Downy) was 10%. The “Bromegrass, Downy plant response rating” value [4, 11] was 10, the “Goosegrass plant response rating (0 to 100 scale)” value [5, 10] was 75 and the pest or weed control at 31 g/ha ([5]; Eleusine indica, post-emergence, postemergence, scale 0 to 100, 0 is no effect, 100 is complete control, read-out: Plant response rating, Goosegrass) was 70%. It also gave a pest or weed control at 125 g/ha ([5]; Eleusine indica, post-emergence, Postemergence, scale 0 to 100 (0 no effect, 100 complete control), read-out: Plant response rating, Goosegrass) of 85%, a pest or weed control at 250 g/ha ([5]; Eleusine indica, post-emergence, Postemergence, 250 g ai/ha, scale 0 to 100 (0 no effect, 100 complete control), read-out: Plant response rating, Goosegrass) of 90% and a pest or weed control at 31 g/ha ([5]; Eleusine indica, pre-emergence, Preemergence, scale 0 to 100 (0 no effect, 100 complete control), read-out: Plant response rating, Goosegrass) of 75%. For the same compound, the pest or weed control at 62 g/ha ([5]; Eleusine indica, pre-emergence, Preemergence, 62 g ai/ha, scale 0 to 100, 0 no effect, 100 complete control, read-out: Plant response rating, Goosegrass) was 90%, the pest or weed control at 125 g/ha ([5]; Eleusine indica, pre-emergence, Preemergence, scale 0 to 100, 0 no effect, 100 complete control, read-out: Plant response rating, Goosegrass) was 100% and the “Goosegrass plant response rating” value [5, 11] was 100. For the same compound, the “Foxtail, Green plant response rating (0 to 100 scale)” value [6, 10] was 80, the “Foxtail, Green plant response rating” value [6, 11] was 100 and the pest or weed control at 31 g/ha ([6]; Setaria viridis, post-emergence, postemergence, scale 0 to 100, 0 is no effect, 100 is complete control, read-out: Plant response rating, Foxtail, Green) was 80%. It also gave a pest or weed control at 125 g/ha ([6]; Setaria viridis, post-emergence, Postemergence, scale 0 to 100 (0 no effect, 100 complete control), read-out: Plant response rating, Foxtail, Green) of 80%, a pest or weed control at 250 g/ha ([6]; Setaria viridis, post-emergence, Postemergence, 250 g ai/ha, scale 0 to 100 (0 no effect, 100 complete control), read-out: Plant response rating, Foxtail, Green) of 95% and a pest or weed control at 31 g/ha ([6]; Setaria viridis, pre-emergence, Preemergence, scale 0 to 100 (0 no effect, 100 complete control), read-out: Plant response rating, Foxtail, Green) of 10%. The pest or weed control at 62 g/ha ([6]; Setaria viridis, pre-emergence, Preemergence, 62 g ai/ha, scale 0 to 100, 0 no effect, 100 complete control, read-out: Plant response rating, Foxtail, Green) was 40%, the pest or weed control at 125 g/ha ([6]; Setaria viridis, pre-emergence, Preemergence, scale 0 to 100, 0 no effect, 100 complete control, read-out: Plant response rating, Foxtail, Green) was 60% and the “Johnsongrass plant response rating (0 to 100 scale)” value [7, 10] was 85. The “Johnsongrass plant response rating” value [7, 11] was 70, the pest or weed control at 31 g/ha ([7]; Sorghum halepense, post-emergence, postemergence, scale 0 to 100, 0 is no effect, 100 is complete control, read-out: Plant response rating, Johnsongrass) was 65% and the pest or weed control at 125 g/ha ([7]; Sorghum halepense, post-emergence, Postemergence, scale 0 to 100 (0 no effect, 100 complete control), read-out: Plant response rating, Johnsongrass) was 90%. For the same compound, the pest or weed control at 250 g/ha ([7]; Sorghum halepense, post-emergence, Postemergence, 250 g ai/ha, scale 0 to 100 (0 no effect, 100 complete control), read-out: Plant response rating, Johnsongrass) was 95%, the pest or weed control at 31 g/ha ([7]; Sorghum halepense, pre-emergence, Preemergence, scale 0 to 100 (0 no effect, 100 complete control), read-out: Plant response rating, Johnsongrass) was 0% and the pest or weed control at 62 g/ha ([7]; Sorghum halepense, pre-emergence, Preemergence, 62 g ai/ha, scale 0 to 100, 0 no effect, 100 complete control, read-out: Plant response rating, Johnsongrass) was 5%. The pest or weed control at 125 g/ha ([7]; Sorghum halepense, pre-emergence, Preemergence, scale 0 to 100, 0 no effect, 100 complete control, read-out: Plant response rating, Johnsongrass) was 60%, the “Kochia plant response rating (0 to 100 scale)” value [8, 10] was 100 and the pest or weed control at 31 g/ha ([8]; Bassia scoparia, post-emergence, postemergence, scale 0 to 100, 0 is no effect, 100 is complete control, read-out: Plant response rating, Kochia) was 98%. The pest or weed control at 125 g/ha ([8]; Bassia scoparia, post-emergence, Postemergence, scale 0 to 100 (0 no effect, 100 complete control), read-out: Plant response rating, Kochia) was 100%, the pest or weed control at 250 g/ha ([8]; Bassia scoparia, post-emergence, Postemergence, 250 g ai/ha, scale 0 to 100 (0 no effect, 100 complete control), read-out: Plant response rating, Kochia) was 100% and the pest or weed control at 31 g/ha ([8]; Bassia scoparia, pre-emergence, Preemergence, scale 0 to 100 (0 no effect, 100 complete control), read-out: Plant response rating, Kochia) was 80%. The pest or weed control at 62 g/ha ([8]; Bassia scoparia, pre-emergence, Preemergence, 62 g ai/ha, scale 0 to 100 (0 no effect, 100 complete control), read-out: Plant response rating, Kochia) was 80%, the pest or weed control at 125 g/ha ([8]; Bassia scoparia, pre-emergence, Preemergence, scale 0 to 100, 0 no effect, 100 complete control, read-out: Plant response rating, Kochia) was 85% and the “Kochia plant response rating” value [8, 11] was 90. For the same compound, the “Lambsquarters plant response rating (0 to 100 scale)” value [9] was 98.
